Earlier results, collected in patent US20220218877A1, “C[…] COMPOSITIONS” ([…], priority 2019, published 2022).

Details: depending upon the conditions
In the case of cannabidiol [CBD], the “Solubility in aqueous solutions” value is given as “a few micrograms/ml or less”. For `CCCCCc1cc(O)c2c(c1)OC(C)(C)[C@@H]1CCC(C)=C[C@@H]21` [THC, tetrahydrocannabinol], the “Solubility in aqueous solutions” value is given as “a few micrograms/ml or less”. In the case of `CCCCCc1cc(O)c2c(c1)OC(C)(C)c1ccc(C)cc1-2` [cannabinol], the “Solubility in aqueous solutions” value is listed as “a few micrograms/ml or less”.
